Data taken from US20150344540A1, “NOVEL GLP-1 RECEPTOR AGONISTS WITH CHOLESTEROL EFFLUX ACTIVITY” (NOVO NORDISK A/S, priority 2012, published 2015).

What was measured:
[1] = system: Mouse monocyte/macrophage cell line, RAW 264.7; test: Cholesterol efflux assay (3H-cholesterol, macrophage cell line); type: cell-based; conditions: RAW 264.7, 4 hrs incubation, 0.1% human serum albumin; for 4 h Cholesterol Efflux Emax: ABCA1-mediated efflux
[2] = Pharmacokinetics in mini-pigs after i.v. administration; conditions: female, Göttingen, minipig, iv, 5 nmol/kg
Excerpt: The aim of the study is to assess the pharmacokinetic properties of the compounds of the invention, in mini-pigs.
Göttingen mini-pigs female, 15-20 kg, purchased from Ellegaard Mini-pigs, Denmark, were housed in the Animal Unit, Novo Nordisk A/S and were kept and handled according to normal procedure in the Animal Unit. After minimum 2 weeks of acclimatization two permanent central venous catheters were implemented in vena cava caudalis in each animal. After surgery the animals were in their normal individual pens during the pharmacokinetic experiments.
Intravenous injections were given through the central short catheter, which was flushed with min 10 ml of sterile saline post administration. The test substance was dosed at 5 nmol/kg, N=3, in a volume of 0.05 ml/kg.
On day 1 the catheters are coupled to extension tubes, which will be removed at the end of day 1.
Samples were kept on wet ice until centrifugation (10 min, 4° C., 1942 g). Afterwards, plasma (min. 100 μl) was transferred immediately to Micronic tubes and kept at −20° C. until analysis. The plasma samples were analysed by an immunoaasay described below.
The plasma concentrations of the peptides with intact N-terminus were determined using a Luminescence Oxygen Chanelling Immuno-assay (LOCI). The donor beads were coated with streptavidin, while acceptor beads were conjugated with a monoclonal antibody recognizing a mid-/C-terminal epitope of the peptide. The other monoclonal antibody, specific for the N-terminus, was biotinylated. The three reactants were combined with the analyte and formed a two-sited immuno-complex. Illumination of the complex released singlet oxygen atoms from the donor beads, which were channeled into the acceptor beads and triggered chemi-luminescence which was measured in an Envision plate reader. The amount of light was proportional to the concentration of the compound.
Plasma concentration-time profiles was analysed by a non-compartmental pharmacokinetics analysis using Phoenix (Pharsight Inc., Mountain View, Calif., USA). Calculations were performed using individual concentration-time values from each animal.

| Structure (SMILES) | 4 h Cholesterol Efflux Emax [1] | C0 ([2]; plasma) | Vd ([2]; plasma) | clearance ([2]; plasma) | half-life ([2]; plasma, T1/2 Mean Value, Göttingen mini-pigs, N=3) | EC50 ([1]; read-out: 4 h Cholesterol Efflux EC50, ABCA1-mediated efflux (CPT-cAMP induced minus non-induced)) | C0 ([2]; in vivo) | Vd ([2]; in vivo) | clearance ([2]; in vivo) | half-life ([2]; in vivo) |
| --- | --- | --- | --- | --- | --- | --- | --- | --- | --- | --- |
| CC[C@H](C)[C@H](NC(=O)[C@H](Cc1ccccc1)NC(=O)[C@H](CCC(=O)O)NC(=O)[C@H](CCCCN)NC(=O)[C@@H](NC(=O)[C@H](C)NC(=O)[C@H](CCC(=O)O)NC(=O)CNC(=O)[C@H](CCC(=O)O)NC(=O)[C@H](CC(C)C)NC(=O)[C@H](Cc1ccc(O)cc1)NC(=O)[C@H](CO)NC(=O)[C@H](CO)NC(=O)[C@@H](NC(=O)[C@H](CC(=O)O)NC(=O)[C@H](CO)NC(=O)[C@@H](NC(=O)[C@H](Cc1ccccc1)NC(=O)[C@@H](NC(=O)CNC(=O)[C@H](CCC(=O)O)NC(=O)C(C)(C)NC(=O)[C@@H](N)Cc1c[nH]cn1)[C@@H](C)O)[C@@H](C)O)C(C)C)C(C)C)C(=O)N[C@@H](C)C(=O)N[C@@H](Cc1c[nH]c2ccccc12)C(=O)N[C@@H](CC(C)C)C(=O)N[C@H](C(=O)N[C@@H](CCC(=O)O)C(=O)N[C@@H](CCCCN)C(=O)NC(C)(C)C(=O)N[C@@H](CCCCN)C(=O)N[C@@H](CCC(=O)O)C(=O)N[C@@H](Cc1ccccc1)C(=O)N[C@@H](CC(C)C)C(=O)N[C@@H](CCC(=O)O)C(=O)N[C@@H](CCCCN)C(=O)N[C@H](C(=O)N[C@@H](CCCCN)C(=O)N[C@@H](CCC(=O)O)C(=O)N[C@@H](Cc1ccccc1)C(N)=O)C(C)C)C(C)C [Compound 61] | 82% | 53.3 nM | 0.27 L/kg | 5.9 mL/h/kg | 31.8 h |  |  |  |  |  |
| CC[C@H](C)[C@H](NC(=O)[C@H](Cc1ccccc1)NC(=O)[C@H](CCC(=O)O)NC(=O)[C@H](CCCCN)NC(=O)[C@@H](NC(=O)[C@H](C)NC(=O)[C@H](CCC(=O)O)NC(=O)CNC(=O)[C@H](CCC(=O)O)NC(=O)[C@H](CC(C)C)NC(=O)[C@H](Cc1ccc(O)cc1)NC(=O)[C@H](CO)NC(=O)[C@H](CO)NC(=O)[C@@H](NC(=O)[C@H](CC(=O)O)NC(=O)[C@H](CO)NC(=O)[C@@H](NC(=O)[C@H](Cc1ccccc1)NC(=O)[C@@H](NC(=O)CNC(=O)[C@H](CCC(=O)O)NC(=O)C(C)(C)NC(=O)[C@@H](N)Cc1c[nH]cn1)[C@@H](C)O)[C@@H](C)O)C(C)C)C(C)C)C(=O)N[C@@H](C)C(=O)N[C@@H](Cc1c[nH]c2ccccc12)C(=O)N[C@@H](CC(C)C)C(=O)N[C@H](C(=O)N[C@@H](CCC(=O)O)C(=O)N[C@@H](CCCCN)C(=O)NC(C)(C)C(=O)N[C@@H](CCCCN)C(=O)N[C@@H](CCC(=O)O)C(=O)N[C@@H](Cc1ccccc1)C(=O)N[C@@H](CC(C)C)C(=O)N[C@@H](CCC(=O)O)C(=O)N[C@@H](CCCCN)C(=O)O)C(C)C [Compound 99, [Aib8,Glu23,Val25,Glu34,Lys35,Aib36,Lys37]-GLP-1-(7-37)-peptidyl-Glu-Phe-Leu-Glu-Lys] | 99% |  |  |  |  | 290 nM | 95.8 nM | 0.0921 L/kg | 1.2 mL/h/kg | 53.2 h |
